In PMC8329280 (Scientific Reports, 2021):
Values after ≈ are worked out from the molar mass of the structure shown. “Also recorded” adds a separate entry of the source. Starred links: 1 amine or outer side, 2 acyl side, 3 side chain; linkers in the order of their positions; H or OH if unused. Positions of bridges follow the written chain, without caps; N, C: chain ends. Non-standard residues stand in square brackets, D forms with d. Residues, ends and D or L forms follow the SMILES beside them. Chains are numbered I, II in the order given. X1 = O=C1CC([*:1])C(=O)N1CCOCCOCCOCCN1C(=O)CC([*:2])C1=O; Dopa = N[C@@H](Cc1ccc(O)c(O)c1)C(=O)O

What was measured:
[1] = test system: Serratia marcescens; format: cell-based
Experimental: (§1) The L- and D- forms of Ctl and also the corresponding L- and D-forms of the scramble peptides were tested by Atlangram (Nantes, France) against resistant Gram-negative bacteria (Escherichia coli, Klebsiella pneumoniae, Enterobacter cloacae, Enterobacter aerogenes, Serratia marcescens, Morganella morganii, Pseudomonas aeruginosa), MSSA, MRSA and yeast (C. albicans). The MICs were determined according to the CASFM/EUCAST 2018 (Comité de l’Antibiogramme de la Société Française de Microbiologie).

[2] = test system: Candida albicans; format: cell-based
Experimental: as §1

[3] = test system: Pseudomonas aeruginosa; format: cell-based
Experimental: as §1

[4] = test system: Morganella morganii; format: cell-based
Experimental: as §1

[5] = test system: Citrobacter freundii; format: cell-based
[6] = test system: MSSA; format: cell-based, Staphylococcus aureus
Experimental: as §1

[7] = test system: MRSA; format: cell-based, Staphylococcus aureus
Experimental: as §1

[8] = test system: Escherichia coli; format: cell-based
Experimental: as §1

[9] = test system: methicillin sensitive S. aureus (MSSA, strain 49775); format: cell-based, Staphylococcus aureus; details: for MIC100 MSSA: MSSA strain 49775, MHB medium pH 7.4, 24 h at 37 °C, A620 nm, triplicates
Experimental: (§2) Antibacterial assays were realized to the method previously reported[22],[25]. S. aureus strains were pre-cultured for 20 h in aerobic conditions at 37 °C in Mueller–Hinton Broth (MHB) medium (Becton–Dickinson Microbiology Company, Sparks, USA) (pH 7.4). Bacteria were suspended at absorbance of 0.001 at 620 nm in the MHB medium. Antibacterial activity was tested for 24 h incubation at 37 °C with shaking by measuring the inhibition of bacterial growth. Ten µl of final volumes (10–200 µg/mL) of synthetic peptides were incubated in microtitration plates with 90 µl of a mid-logarithmic phase culture of bacteria, with a starting absorbance of 0.001 at 620 nm. A mixture of Tetracycline (10 mg/L) and Cefotaxime (0.1 mg/L) were used as positive controls. Microbial growth was assessed by the increase of absorbance after 24 h incubation at 37 °C. The A620 nm value of control cultures growing in the absence of peptide and antibiotics was defined as 100% growth. A620 nm value with the antibiotics (Tetracycline and Cefotaxime) was taken as 100% inhibition. Absence of bacterial growth was verified by agar plate spreading. Each assay was performed in triplicates. Data were shown as mean + /− standard deviation of three independent experiments; p < 0.05.

[10] = test system: C. albicans (ATCC 10231TM); experiment: Antimicrobial assay against C. albicans ATCC 10231; format: cell-based, Candida albicans; details: Sabouraud medium, 24 h at 37 °C, OD620nm, lowest concentration inhibiting 100% of growth
Experimental: Antimicrobial assays against C. albicans (ATCC 10231TM) were realized according to the method previously reported. C. albicans was cultured in Sabouraud medium (Sigma-Aldrich, Saint Louis, USA) supplemented with tetracycline (10 μg/mL) and cefotaxime (10 μg/mL) at 37 °C for 24 h. C. albicans (OD620nm = 0.001) were plated in 96-well plates and treated either with different concentrations of the peptides of interest, and/or with different concentrations of voriconazole (VCZ) (Sigma-Aldrich, Saint Louis, USA). As a positive control, cells were treated with 10 μg/mL VCZ. After 24 h incubation, yeast growth was assessed by optical density OD620nm using a spectrophotometer Multiskan EX Microplate Reader Lab (Thermo Fisher Scientific, Waltham, MA, USA).
The MIC of the antifungal agents is defined as the lowest concentration of drug able to inhibit 100% of the growth of C. albicans.

[11] = test system: Human Peripheral Blood Mononuclear Cells (PBMCs); experiment: Cytokine release assay, Bio-Plex Multiplex Immunoassay; format: cell-based; details: 30 µM, 24 h, IL-6, IL-8, IL-10 pointed out, two healthy volunteers
Excerpt: (§3) The release of cytokines IL-6, IL-8, IL-10 and TNF-α induced after the treatment of immune cells by Cts was realized by the use of an automated ELISA immunoassay (Immulite One, Siemens la Garenne-Colombe, France) and with the Bio-Plex Multiplex Immunoassay system (Bio-Rad, Marnes-la-Coquette) for the treatment of Human Peripheral Blood Mononuclear Cells (PBMCs) by L-Ctl, D-Ctl, Ctl-C, D-Ctl-C and P3. PBMCs from healthy volunteers were obtained from the blood transfusion centre of Strasbourg (Etablissement Français du Sang, Strasbourg) and isolated by density gradient centrifugation using Lymphoprep (Stemcell Technologies). PMBC were then maintained in AIM V medium (Thermo Fisher Scientific, Waltham, MA, USA) at 37 °C in a 5% CO2 humidified incubator and treated for 24 h with 30 µM of each peptide (L-Ctl, D-Ctl, Ctl-C, D-Ctl-C and P3). Three technical replicates were performed for each condition. Supernatants were then filtered and assessed for cytokine dosage according to the manufacturer’s instructions.

[12] = test system: methicillin resistant S. aureus (MRSA, strain S1); experiment: Antibacterial growth inhibition assay, MRSA strain S1; format: cell-based, Staphylococcus aureus; details: MHB medium pH 7.4, 24 h at 37 °C, A620 nm, triplicates
Experimental: as §2

[13] = test system: CD14 cells; experiment: Cytokine release assay, ELISA; format: cell-based, human; details: 24 h, cells from 2 patients
Experimental: Three types of immune cells were prepared from human monocytes provided from the EFS (Etablissement Français du Sang). Dendritic cells (DC1a), CD14 and macrophages were obtained after treatment of monocytes by cytokines according to the methods previously reported[31],[32] and the identification of the immune cells was validated by using flow cytometry analysis (Fluorescence Activated Cell Sorting, FACS).
as §3

[14] = test system: Endoprotease Glu-C from S. aureus V8 (E.C. 3.4.21.19); experiment: endoprotease Glu-C in 50 mM Tris–HCl pH 8.2 or PBS; details: S. aureus V8, 37 °C, up to 18 h
[15] = test system: proteases produced by Staphylococcus aureus; experiment: proteases produced by Staphylococcus aureus; details: cited from earlier work
[16] = test system: Endoprotease Glu-C from S. aureus V8 (E.C. 3.4.21.19); experiment: Endoprotease Glu-C in 50 mM Tris–HCl pH 8.2 or PBS; details: S. aureus V8 (enzyme source), 37 °C, up to 18 h

**Q.** What does the source list for CSCC[C@@H](NC(=O)[C@H](N)Cc1ccccc1)C(=O)N[C@H](CCCNC(=N)N)C(=O)N[C@H](CC(C)C)C(=O)N[C@H](CCCNC(=N)N)C(=O)N[C@H](Cc1ccc(O)cc1)C(=O)N[C@H](CCCNC(=N)N)C(=O)N[C@H](CO)C(=O)N[C@H](CO)C(=O)N[C@H](C)C(=O)N[C@H](Cc1ccccc1)C(=O)NCC(=O)NCC(=O)N[C@H](CCCNC(=N)N)C(=O)N[C@H](CCCNC(=N)N)C(=O)O [Control D, reference compound] (H-[dF][dM][dR][dL][dR][dY][dR][dS][dS][dA][dF]GG[dR][dR]-OH)?
**A.** MIC [1]: > 128 µg/mL; MIC [2]: 512 µg/mL (≈ 275 µM); MIC [3]: > 128 µg/mL; MIC [4]: > 128 µg/mL; MIC [5]: 128 µg/mL (≈ 68.8 µM); MIC [6]: > 128 µg/mL; MIC [7]: > 128 µg/mL

**Q.** Which MIC [2] does the source give for CSCC[C@@H](NC(=O)[C@@H](CO)NC(=O)[C@H](N)CCCNC(=N)N)C(=O)N[C@H](CCCNC(=N)N)C(=O)N[C@H](CC(C)C)C(=O)N[C@H](CO)C(=O)N[C@H](Cc1ccccc1)C(=O)N[C@H](CCCNC(=N)N)C(=O)N[C@H](C)C(=O)N[C@H](CCCNC(=N)N)C(=O)NCC(=O)N[C@H](Cc1ccc(O)cc1)C(=O)NCC(=O)N[C@H](Cc1ccccc1)C(=O)N[C@H](CCCNC(=N)N)C(=O)O [D-Ctl] (H-[dR][dS][dM][dR][dL][dS][dF][dR][dA][dR]G[dY]G[dF][dR]-OH) here?
**A.** Its MIC is 256 µg/mL (≈ 138 µM).

**Q.** And the “MIC against several strains of E. coli” value [8]?
**A.** Its value is 8 to 32 µg/mL.

**Q.** What about the MIC [4] of the same compound?
**A.** The MIC was > 128 µg/mL.

**Q.** What about the MIC [7] of the same compound?
**A.** The MIC was 64 µg/mL (≈ 34.4 µM).

**Q.** For CSCC[C@@H](NC(=O)[C@@H](CO)NC(=O)[C@@H](CCCNC(=N)N)NC(=O)[C@H](CCC(=O)O)NC(=O)CNC(=O)CNC(=O)[C@H](CCCNC(=N)N)NC(=O)[C@H](CC(C)C)NC(=O)[C@@H](NC(=O)[C@H](Cc1ccc(O)c(O)c1)NC(=O)[C@H](CCCCN)NC(=O)[C@H](Cc1ccc(O)c(O)c1)NC(=O)[C@H](CCCCN)NC(=O)[C@@H](N)Cc1ccc(O)c(O)c1)[C@@H](C)O)C(=O)N[C@H](CCCNC(=N)N)C(=O)N[C@H](CC(C)C)C(=O)N[C@H](CO)C(=O)N[C@H](Cc1ccccc1)C(=O)N[C@H](CCCNC(=N)N)C(=O)N[C@H](C)C(=O)N[C@H](CCCNC(=N)N)C(=O)NCC(=O)N[C@H](Cc1ccc(O)cc1)C(=O)NCC(=O)N[C@H](Cc1ccccc1)C(=O)N[C@H](CCCNC(=N)N)C(=O)O [DOPA5T-(D)Ctl] (H-[Dopa]K[Dopa]K[Dopa]TLRGGE[dR][dS][dM][dR][dL][dS][dF][dR][dA][dR]G[dY]G[dF][dR]-OH), which IC50 ([9]; methicillin sensitive (, strain 49775, 24 h)) is on record?
**A.** Its IC50 is 35 µM.

**Q.** What does the source list for CSCC[C@H](NC(=O)[C@H](CO)NC(=O)[C@@H](N)CCCNC(=N)N)C(=O)N[C@@H](CCCNC(=N)N)C(=O)N[C@@H](CC(C)C)C(=O)N[C@@H](CO)C(=O)N[C@@H](Cc1ccccc1)C(=O)N[C@@H](CCCNC(=N)N)C(=O)N[C@@H](C)C(=O)N[C@@H](CCCNC(=N)N)C(=O)NCC(=O)N[C@@H](Cc1ccc(O)cc1)C(=O)NCC(=O)N[C@@H](Cc1ccccc1)C(=O)N[C@@H](CCCNC(=N)N)C(=O)N[C@@H](CSC1CC(=O)N(CCOCCOCCOCCN2C(=O)CC(SC[C@H](NC(=O)[C@H](CCCNC(=N)N)NC(=O)[C@H](Cc3ccccc3)NC(=O)CNC(=O)[C@H](Cc3ccc(O)cc3)NC(=O)CNC(=O)[C@H](CCCNC(=N)N)NC(=O)[C@H](C)NC(=O)[C@H](CCCNC(=N)N)NC(=O)[C@H](Cc3ccccc3)NC(=O)[C@H](CO)NC(=O)[C@H](CC(C)C)NC(=O)[C@H](CCCNC(=N)N)NC(=O)[C@H](CCSC)NC(=O)[C@H](CO)NC(=O)[C@@H](N)CCCNC(=N)N)C(=O)O)C2=O)C1=O)C(=O)O (stereo partly drawn) [Peptide P3] (I: H-RSMRLSFRARGYGFRC-OH / II: H-RSMRLSFRARGYGFRC-OH; linker I:16-II:16 via X1; N-terminus and C-terminus assumed)?
**A.** MIC100 MSSA [9]: 30 µM (≈ 128 µg/mL); MIC100 C. albicans [10]: 20 µM (≈ 85.6 µg/mL); release of the tested cytokines from PBMCs [11]: unable to induce te release of the tested cytokines; also recorded: unable to release significantly the tested cytokines; MIC100 MRSA [12]: 50 µM (≈ 214 µg/mL)

**Q.** For Catestatin [Cts], which “production of IL-6” value ([13]; 15 µM, cell type not given) is on record?
**A.** Its value is “not modified”.

**Q.** And the “production of IL-10” value ([13]; 15 µM, cell type not given)?
**A.** The value was “not modified”.

**Q.** What about the “production of TNF-α” value ([13]; 15 µM, cell type not given) of the same compound?
**A.** The value was “not modified”.

**Q.** And the “decrease of the amount of IL-8 released versus controls (without peptide)” value ([13]; CD14, 15 µM)?
**A.** The value was 26%.

**Q.** For “DOPA-K-DOPA-K-DOPA-TLRGGE-RSMRLSFRARGYGFR”, which cleaved bond [14] is on record?
**A.** The cleaved bond was “E-R, major”.

**Q.** With RSMRLSFRARGYGFR as the compound, how does the not cleaved [15] read?
**A.** Its not cleaved is “resistant to degradation by the proteases produced by Staphylococcus aureus”.

**Q.** With “RSMRLSFRARGYGFRMal-(12PEG)-MalRFGYGRARFSLRMSR [Peptide P4, dimeric form of Ctl with spacer of 12 PEG]” as the compound, how does the “MIC100 MSSA” value [9] read?
**A.** Its value is > 100 µM.

**Q.** What does the source list for “RSMRLSFRARGYGFRMal-(16PEG)-MalRFGYGRARFSLRMSR [Peptide P5, dimeric form of Ctl with spacer of 16 PEG]”?
**A.** MIC100 MSSA [9]: > 100 µM; MIC100 C. albicans [10]: 50 µM; MIC100 MRSA [12]: > 100 µM

**Q.** For “RSMRLSFRARGYGFRMal-(46PEG)-MalRFGYGRARFSLRMSR [Peptide P6, dimeric form of Ctl with spacer of 46 PEG]”, which “MIC100 MSSA” value [9] is on record?
**A.** The value was > 100 µM.

**Q.** Which results are given for TLRGGE-RSMRLSFRARGYGFR?
**A.** cleaved bond [14]: R-A, major; fragment found [14]: TLRGGE, major; cleaved bond [16]: R-A, major
